Experiment: Vapour sorption studies
Type: physicochemical
Description: As is well known, a channel hydrate is a hydrate in which the crystal lattice of the molecule forms a channel or cage enclosing a void which can wholly or partially accommodate water (or solvent) molecules. The stoichiometric (molar) ratio of smilagenin:water at any particular time will depend on such factors as the humidity of the surrounding atmosphere, as the water molecules are generally free to enter or leave the void.

## C[C@@H]1CC[C@@]2(OC1)O[C@H]1C[C@H]3[C@@H]4CC[C@@H]5C[C@@H](O)CC[C@]5(C)[C@H]4CC[C@]3(C)[C@H]1[C@@H]2C [Crystalline Form VI, smilagenin]
FIG. 11
  hygroscopicity in vapour sorption study: hygroscopic
At high humidity, i.e. a dihydrate
  water adsorbed, molar equivalents: about 2 mol. eq. water
At high humidity, water reversibly lost at low humidity (FIG. 11)
  water adsorbed in vapour sorption study: up to 9 % water
